Assay results from patent US20020114854A1, “Chinese herb medicine composition for cancer prophylaxis and therapy” (priority 2001, published 2002).

Columns and labels:
Type in all cases: cell-based
[1] = system: ovary cancer cell strain OC-117; experiment: survival rate of ovary cancer cell strain OC-117 (CTAQ cell activity); details: 10 p (20 mg/ml) cis-Platine, treated over 48 hours
[2] = system: cervical cancer cell strain CC-135; experiment: survival rate of cervical cancer cell strain CC-135 (CTAQ cell activity); set-up: dose or concentration left out as unconfirmed; details: 10 p, 1.0 p or 0.1 p cis-Platine, treated 24 hours
[3] = system: esophagus cancer cell strain CE-81; experiment: survival rate of esophagus cancer cell strain CE-81 (CTAQ cell activity, OD 492 nm); set-up: dose or concentration left out as unconfirmed; details: treated 96 hours
Procedure: Regarding to the cell strain culture in following embodiments, the culture solution of Ham's F 12/DMEM (v/v 1:1) including 10% (v/v) fetus cattle serum (FCS) and antibiotics (100 μg/ml streptomycin, 100 IU/ml penicillin, 1 μg/ml amphotericin) is used for cultivating all cell strains at 37° C., 5% CO2. When the cell grows to 80% full, the cell is washed down by Trypsin-EDTA to do the sub-culture. For the sub-culture, the cell is rinsed by HBSS first, washed down by Trypsin-EDTA, and centrifugated at 1000 rpm, 25° C. for 10 minutes. Sequentially, the cell is diluted by four times culture solution to be continuously cultivated. In addition, the sub-culture is done once per week. […]
The esophagus cancer cell strain, CE-81, is washed down by Trypsin-EDTA, centrifugated, and diluted to a cell concentration of 10^6 cells/ml by FCS-free culture solution. […] After different treating time, the cell strain CE-81 is added […] cell activity detecting agent CTAQTM, and the cell activity is detected at OD 492 nm by multiple frequency scanner. […] Thus, the survival rate of cell (%) is obtained via comparing the determined value difference between after and before adding CTAQ with the standard curve by intercalation.

[4] = system: bladder cancer cell strain Bladder-3; experiment: survival rate of bladder cancer cell strain Bladder-3 (CTAQ cell activity); set-up: dose or concentration left out as unconfirmed; details: treated over 48 hours

SMILES: [NH2][Pt]([NH2])([Cl])[Cl] [cis-Platine]
- survival rate of OC-117 [1]: below 20%
- survival rate of CC-135 [2]: about 50%
- survival rate of CE-81 [3]: about 60%
- inhibition effect on Bladder-3 (in words) [4]: significant inhibition effect
